Reference: US20060069132A1, “Azolecarboxamide herbicides” (priority 2004, published 2006)

Tests used:
[1] = test system: barnyardgrass; assay: Test C flooded paddy test; format: in vivo, Echinochloa crus-galli
Procedure, shortened: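 Visual rating, 0 (no effect) to 100 (complete control), vs. controls at 12–14 d in greenhouse. Postemergence: 1–4-leaf plants, 2–18 cm. Paddy: flooded, barnyardgrass at 2-leaf stage.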

[2] = test system: wild oat; assay: Test B postemergence herbicide test; format: in vivo, Avena fatua; settings: postemergence
Procedure, shortened: (§1)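 Plants grow to 1- to 4-leaf stage (2–18 cm) for postemergence spraying, or to 2-leaf stage for the paddy test. Formulated compound is applied. Greenhouse holding lasts 13–15 days. Response is scored visually relative to controls, 0 no effect to 100 complete control; a dash means no result.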

[3] = test system: rice; assay: Test B flooded paddy test; format: in vivo, Oryza sativa; settings: 1000 g ai/ha, scale 0 to 100 (0 no effect, 100 complete control)
Procedure, shortened: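 Visual ratings, 0 (no effect) to 100 (complete control), made versus controls after 13–15 d greenhouse. Paddy plants treated at 2-leaf stage; postemergence plants at 1- to 4-leaf stage, 2–18 cm tall.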

[4] = test system: Surinam grass; assay: Test B pre-/postemergence herbicide test; format: in vivo, Urochloa decumbens; settings: for Surinam Grass plant response rating: postemergence
Procedure, shortened: (§2)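 Seeds were planted and treated preemergence with compounds formulated in a non-phytotoxic solvent mixture containing surfactant, while plants at the 1- to 4-leaf stage (2 to 18 cm) received postemergence sprays. Flooded paddy plants were grown to the 2-leaf stage. After 13 to 15 days in a greenhouse, injury was visually rated 0–100 against untreated controls.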

[5] = test system: wheat; assay: Test B postemergence herbicide test; format: in vivo, Triticum aestivum; set-up: key to Wheat plant response rating: 0 = no effect, 100 = complete control; settings: postemergence
Procedure, shortened: as §1

[6] = test system: corn; assay: Test B pre-/postemergence herbicide test; format: in vivo, Zea mays; settings: for Corn plant response rating: postemergence
Procedure, shortened: as §2

[7] = test system: smallflower umbrella sedge; assay: Test C flooded paddy test; format: in vivo, Cyperus difformis
[8] = test system: lambsquarters; assay: Test B pre-/postemergence herbicide test; format: in vivo, Chenopodium album; settings: for Lambsquarters plant response rating: postemergence
Procedure, shortened: as §2

[9] = test system: morningglory; assay: Test B pre-/postemergence herbicide test; format: in vivo, Ipomoea coccinea; settings: for Morningglory plant response rating: postemergence
Procedure, shortened: (§3)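 Plants compared with untreated controls 13–15 days post-treatment and given a visual 0–100 injury score. Applications: preemergence to seeds; postemergence at 1- to 4-leaf (2–18 cm); paddy species flooded, 2-leaf stage. Vehicle non-phytotoxic, surfactant included.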

[10] = test system: rice; assay: Test C flooded paddy test; format: in vivo, Oryza sativa
Procedure, shortened: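 Injury scored visually against controls on a 0 (no effect) to 100 (complete control) scale, 12 to 14 days after treatment in greenhouse. Flooded paddy plants treated at 2-leaf stage; postemergence plants at 1- to 4-leaf stage, 2 to 18 cm tall.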

[11] = test system: barnyardgrass; assay: Test B flooded paddy test; format: in vivo, Echinochloa crus-galli; settings: 1000 g ai/ha, scale 0 to 100 (0 no effect, 100 complete control)
Procedure, shortened: (§4)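 Formulated test chemicals went onto postemergence plants measuring 2 to 18 cm, at one to four leaves. For the paddy assay, species had reached two leaves. Scoring took place 13–15 days later by eye, relative to untreated plants, using 0 for no effect up to 100 for full control.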

[12] = test system: giant foxtail; assay: Test B pre-/postemergence herbicide test; format: in vivo, Setaria faberi; settings: for Foxtail, Giant plant response rating: postemergence
Procedure, shortened: as §2

[13] = test system: blackgrass; assay: Test B postemergence herbicide test; format: in vivo, Alopecurus myosuroides; settings: postemergence, visual rating, scale 0 (no effect) to 100 (complete control)
Procedure, shortened: as §4

[14] = test system: ducksalad; assay: Test C flooded paddy test; format: in vivo, Heteranthera limosa
[15] = test system: cocklebur; assay: Test B pre-/postemergence herbicide test; format: in vivo, Xanthium strumarium; settings: for Cocklebur plant response rating: postemergence, scale 0 (no effect) to 100 (complete control)
Procedure, shortened: as §3

[16] = test system: large crabgrass; assay: Test B pre-/postemergence herbicide test; format: in vivo, Digitaria sanguinalis; settings: for Crabgrass, Large plant response rating: postemergence
Procedure, shortened: as §2

[17] = test system: small flower umbrella sedge; assay: Test B flooded paddy test; format: in vivo, Cyperus difformis; settings: 1000 g ai/ha, scale 0 to 100 (0 no effect, 100 complete control)
Procedure, shortened: as §4

[18] = test system: rice; assay: Test B pre-/postemergence herbicide test; format: in vivo, Oryza sativa; settings: 0 = no effect, 100 = complete control, preemergence
Procedure, shortened: as §2

[19] = test system: pigweed; assay: Test B pre-/postemergence herbicide test; format: in vivo, Amaranthus retroflexus; settings: for Pigweed plant response rating: postemergence
Procedure, shortened: as §2

[20] = test system: velvetleaf; assay: Test B pre-/postemergence herbicide test; format: in vivo, Abutilon theophrasti; settings: for Velvetleaf plant response rating: postemergence
Procedure, shortened: as §2

[21] = test system: barnyardgrass; assay: Test B pre-/postemergence herbicide test; format: in vivo, Echinochloa crus-galli; settings: for Barnyardgrass plant response rating: postemergence, scale 0 (no effect) to 100 (complete control)
Procedure, shortened: as §3

[22] = test system: ducksalad; assay: Test B flooded paddy test; format: in vivo, Heteranthera limosa; settings: 1000 g ai/ha, scale 0 to 100 (0 no effect, 100 complete control)
Procedure, shortened: as §4

[23] = 62 g ai/ha, scale 0 to 100 (0 no effect, 100 complete control)
[24] = 125 g ai/ha, scale 0 to 100 (0 no effect, 100 complete control)
[25] = 250 g ai/ha, scale of 0 to 100, 0 is no effect, 100 is complete control
[26] = 500 g ai/ha, visual rating after 12 to 14 days, scale 0 to 100 (0 no effect, 100 complete control)
[27] = 125 g ai/ha, visual rating, scale 0 (no effect) to 100 (complete control)
[28] = 500 g ai/ha, scale 0 to 100, 0 is no effect, 100 is complete control
[29] = 125 g ai/ha, 0 = no effect, 100 = complete control, preemergence
[30] = 500 g ai/ha, visual rating, 0 = no effect, 100 = complete control, preemergence

Compound: CCn1nc(C(C)(C)C)cc1C(=O)Nc1cccc(C(=O)N2CCCC2)n1 [Compound 245]
- Barnyardgrass plant response rating [1, 23]: 0
- Barnyardgrass plant response rating [1, 24]: 35
- Barnyardgrass plant response rating [1, 25]: 45
- Plant response rating, Barnyardgrass [1, 26]: 70
- Oat, Wild plant response rating [2, 27]: 20
- Oat, Wild plant response rating [2, 28]: 30
- Rice plant response rating [3]: 80
- Surinam Grass plant response rating (0 to 100 scale) [4, 29]: 40
- Plant response rating, Surinam Grass [4, 30]: 80
- Surinam Grass plant response rating [4, 27]: 30
- Surinam Grass plant response rating [4, 28]: 60
- Wheat plant response rating [5, 27]: 10
- Wheat plant response rating [5, 28]: 20
- Corn plant response rating (0 to 100 scale) [6, 29]: 0
- Plant response rating, Corn [6, 30]: 10
- Corn plant response rating [6, 27]: 10
- Corn plant response rating [6, 28]: 30
- Sedge, Umbrella plant response rating [7, 23]: 55
- Sedge, Umbrella plant response rating [7, 24]: 70
- Sedge, Umbrella plant response rating [7, 25]: 70
- Plant response rating, Sedge, Umbrella [7, 26]: 70
- Lambsquarters plant response rating (0 to 100 scale) [8, 29]: 90
- Plant response rating, Lambsquarters [8, 30]: 100
- Lambsquarters plant response rating [8, 27]: 80
- Lambsquarters plant response rating [8, 28]: 90
- Morningglory plant response rating (0 to 100 scale) [9, 29]: 10
- Plant response rating, Morningglory [9, 30]: 20
- Morningglory plant response rating [9, 27]: 10
- Morningglory plant response rating [9, 28]: 60
- Rice plant response rating [10, 23]: 25
- Rice plant response rating [10, 24]: 65
- Rice plant response rating [10, 25]: 70
- Plant response rating, Rice [10, 26]: 70
- Barnyardgrass plant response rating [11]: 90
- Foxtail, Giant plant response rating (0 to 100 scale) [12, 29]: 60
- Plant response rating, Foxtail, Giant [12, 30]: 90
- Foxtail, Giant plant response rating [12, 27]: 30
- Foxtail, Giant plant response rating [12, 28]: 60
- Blackgrass plant response rating ([13]; 125 g ai/ha): 0
- Blackgrass plant response rating ([13]; 500 g ai/ha): 0
- Ducksalad plant response rating [14, 23]: 60
- Ducksalad plant response rating [14, 24]: 75
- Ducksalad plant response rating [14, 25]: 75
- Plant response rating, Ducksalad [14, 26]: 75
- Cocklebur plant response rating (0 to 100 scale) [15, 29]: 0
- Plant response rating, Cocklebur [15, 30]: 0
- Cocklebur plant response rating ([15]; 125 g ai/ha, visual rating): 40
- Cocklebur plant response rating ([15]; 500 g ai/ha, visual rating): 80
- Crabgrass, Large plant response rating (0 to 100 scale) [16, 29]: 60
- Plant response rating, Crabgrass, Large [16, 30]: 100
- Crabgrass, Large plant response rating [16, 27]: 10
- Crabgrass, Large plant response rating [16, 28]: 50
- Sedge, Umbrella plant response rating [17]: 50
- Rice plant response rating (0 to 100 scale) ([18]; 125 g ai/ha): 20
- Plant response rating, Rice ([18]; 500 g ai/ha, visual rating): 50
- Pigweed plant response rating (0 to 100 scale) [19, 29]: 100
- Plant response rating, Pigweed [19, 30]: 100
- Pigweed plant response rating [19, 27]: 60
- Pigweed plant response rating [19, 28]: 80
- Velvetleaf plant response rating (0 to 100 scale) [20, 29]: 40
- Plant response rating, Velvetleaf [20, 30]: 90
- Velvetleaf plant response rating [20, 27]: 70
- Velvetleaf plant response rating [20, 28]: 80
- Barnyardgrass plant response rating (0 to 100 scale) [21, 29]: 70
- Plant response rating, Barnyardgrass [21, 30]: 100
- Barnyardgrass plant response rating ([21]; 125 g ai/ha, visual rating): 40
- Barnyardgrass plant response rating ([21]; 500 g ai/ha, visual rating): 70
- Ducksalad plant response rating [22]: 80
